Calls of active or inactive are those of the source. The calls are words filed in the database; no cut-off is given here.
Columns and labels:
[1] = Cytotoxicity against Mus musculus Balb/c (mouse) macrophages after 24 hr by MTT assay; type: cell-based, Macrophage; conditions: read-out: LC50
Rattus norvegicus = experiment: Inhibition of 5alpha-reductase in Rattus norvegicus Sprague-Dawley (rat) assessed as increase in serum testosterone at 40 mg/kg, ip after 6 hr by ELISA; type: functional, organism-based; design: dose 40 mg/kg
DU-145 [2] = experiment: Growth inhibition of Homo sapiens (human) DU145 cells at 5 ug/ml after 48 hr by MTT assay; type: functional; conditions: for inhibition of growth at 5 µg/mL: DU-145, 48 h, read-out: GI
DU-145 [3] = experiment: Cytotoxicity against Homo sapiens (human) DU145 cells after 48 hr by MTT assay; type: functional, cell-based
DU-145 [4] = experiment: Growth inhibition of Homo sapiens (human) DU145 cells at 0.5 ug/ml after 48 hr by MTT assay; type: functional; conditions: for inhibition of growth at 0.5 µg/mL: DU-145, 48 h, read-out: GI
DU-145 [5] = experiment: Growth inhibition of Homo sapiens (human) DU145 cells at 2 ug/ml after 48 hr by MTT assay; type: functional; conditions: for inhibition of growth at 2 µg/mL: DU-145, 48 h, read-out: GI
DU-145 [6] = experiment: Growth inhibition of Homo sapiens (human) DU145 cells at 0.01 ug/ml after 48 hr by MTT assay; type: functional; conditions: for inhibition of growth at 0.01 µg/mL: DU-145, 48 h, read-out: GI
DU-145 [7] = experiment: Growth inhibition of Homo sapiens (human) DU145 cells at 1 ug/ml after 48 hr by MTT assay; type: functional; conditions: for inhibition of growth at 1 µg/mL: DU-145, 48 h, read-out: GI
[8] = Homo sapiens, DU-145, 48 h, read-out: IC50

For `Cc1ccc(C(=O)O[C@H]2CC[C@@]3(C)C(=CC[C@@H]4[C@@H]3CC[C@]3(C)/C(=N/O)CC[C@@H]43)C2)cc1`, the CC50 at 24 h [1] was 22 µM, the inhibition (Rattus norvegicus) was “Active” and the inhibition of growth at 5 µg/mL (DU-145 [2]) was 92.9%. It also gave an IC50 (DU-145 [3]; [8]) of 2.3 µM.

For `C[C@]12CC[C@H](OC(=O)COc3ccccc3)CC1=CC[C@@H]1[C@@H]2CC[C@]2(C)/C(=N/O)CC[C@@H]12`, the CC50 at 24 h [1] was 89 µM, the inhibition (Rattus norvegicus) was “Active” and the IC50 (DU-145 [3]; [8]) was 6.3 µM.

In the case of `C[C@]12CC[C@H](OC(=O)c3ccc([N+](=O)[O-])cc3)CC1=CC[C@@H]1[C@@H]2CC[C@]2(C)/C(=N/O)CC[C@@H]12`, the CC50 at 24 h [1] is reported as 19.5 µM, the inhibition (Rattus norvegicus) is reported as “Active” and the inhibition of growth at 5 µg/mL (DU-145 [2]) is reported as 81.5%. It also gave an IC50 (DU-145 [3]; [8]) of 3.07 µM.

With `C[C@]12CC[C@H](OC(=O)c3ccc(Cl)cc3)CC1=CC[C@@H]1[C@@H]2CC[C@]2(C)/C(=N/O)CC[C@@H]12` the CC50 at 24 h [1] was 24 µM, the inhibition (Rattus norvegicus) was “Active” and the inhibition of growth at 5 µg/mL (DU-145 [2]) was 84.5%. It also gave an IC50 (DU-145 [3]; [8]) of 3.4 µM.

With `C[C@]12CC[C@H](OC(=O)c3ccccc3)CC1=CC[C@@H]1[C@@H]2CC[C@]2(C)/C(=N/O)CC[C@@H]12` the CC50 at 24 h [1] was 89.4 µM, the inhibition (Rattus norvegicus) was “Active” and the inhibition of growth at 5 µg/mL (DU-145 [2]) was 91.1%. It also gave an IC50 (DU-145 [3]; [8]) of 3.8 µM.

For `C[C@]12CC[C@H](OC(=O)Cc3ccccc3)CC1=CC[C@@H]1[C@@H]2CC[C@]2(C)/C(=N/O)CC[C@@H]12`, the “growth inhibition (GI)” value (DU-145 [4]) was “inactive”, the “growth inhibition (GI)” value (DU-145 [5]) was “inactive” and the CC50 at 24 h [1] was 11.8 µM. The inhibition (Rattus norvegicus) was “Active”, the “growth inhibition (GI)” value (DU-145 [2]) was “inactive” and the “growth inhibition (GI)” value (DU-145 [6]) was “inactive”. The “growth inhibition (GI)” value (DU-145 [7]) was “inactive” and the IC50 (DU-145 [3]; [8]) was 6.5 µM.

For `C[C@]12CC[C@H](OC(=O)c3ccc(O)cc3)CC1=CC[C@@H]1[C@@H]2CC[C@]2(C)/C(=N/O)CC[C@@H]12`, the CC50 at 24 h [1] was 22 µM, the inhibition (Rattus norvegicus) was “inactive” and the inhibition of growth at 5 µg/mL (DU-145 [2]) was 91.5%. The IC50 (DU-145 [3]; [8]) was 2.9 µM.

In the case of `C[C@]12CC[C@H](OC(=O)c3ccc(N)cc3)CC1=CC[C@@H]1[C@@H]2CC[C@]2(C)/C(=N/O)CC[C@@H]12`, the CC50 at 24 h [1] is reported as 29.4 µM, the inhibition (Rattus norvegicus) is reported as “Active” and the inhibition of growth at 5 µg/mL (DU-145 [2]) is reported as 91%. The IC50 (DU-145 [3]; [8]) was 3.7 µM.

With `CC(C)(C)NC(=O)[C@H]1CC[C@H]2[C@@H]3CC[C@H]4NC(=O)C=C[C@]4(C)[C@H]3CC[C@]12C` [FINASTERIDE] the inhibition of growth at 2 µg/mL (DU-145 [5]) was 36%, the CC50 at 24 h [1] was 28.2 µM and the inhibition (Rattus norvegicus) was “Active”. For the same compound, the inhibition of growth at 5 µg/mL (DU-145 [2]) was 78.5% and the inhibition of growth at 0.01 µg/mL (DU-145 [6]) was 5%.

For `COc1ccc(C(=O)O[C@H]2CC[C@@]3(C)C(=CC[C@@H]4[C@@H]3CC[C@]3(C)/C(=N/O)CC[C@@H]43)C2)cc1`, the inhibition of growth at 0.5 µg/mL (DU-145 [4]) was 51.4%, the inhibition of growth at 2 µg/mL (DU-145 [5]) was 65.6% and the CC50 at 24 h [1] was 14 µM. For the same compound, the inhibition (Rattus norvegicus) was “inactive”, the inhibition of growth at 5 µg/mL (DU-145 [2]) was 69.5% and the inhibition of growth at 0.01 µg/mL (DU-145 [6]) was 30.7%. For the same compound, the inhibition of growth at 1 µg/mL (DU-145 [7]) was 59.2% and the IC50 (DU-145 [3]; [8]) was 5.4 µM.

For `C[C@]12CC[C@H](OC(=O)CCl)CC1=CC[C@@H]1[C@@H]2CC[C@]2(C)/C(=N/O)CC[C@@H]12`, the inhibition of growth at 0.5 µg/mL (DU-145 [4]) was 55%, the inhibition of growth at 2 µg/mL (DU-145 [5]) was 56% and the CC50 at 24 h [1] was 28 µM. The inhibition (Rattus norvegicus) was “Active”, the inhibition of growth at 5 µg/mL (DU-145 [2]) was 59.2% and the inhibition of growth at 0.01 µg/mL (DU-145 [6]) was 53%. The inhibition of growth at 1 µg/mL (DU-145 [7]) was 56% and the IC50 (DU-145 [3]; [8]) was 4.8 µM.

For `C[C@]12CC[C@H](O)CC1=CC[C@@H]1[C@@H]2CC[C@]2(C)/C(=N/O)CC[C@@H]12`, the “growth inhibition (GI)” value (DU-145 [4]) was “inactive”, the “growth inhibition (GI)” value (DU-145 [5]) was “inactive” and the inhibition (Rattus norvegicus) was “Active”. The “growth inhibition (GI)” value (DU-145 [2]) was “inactive”, the “growth inhibition (GI)” value (DU-145 [6]) was “inactive” and the “growth inhibition (GI)” value (DU-145 [7]) was “inactive”. For the same compound, the IC50 (DU-145 [3]; du-145) was “Not Active”.
